Tests used:
[1] = test system: Echinochloa oryzoides (Ard.) Fritsch.; assay: Preemergence weed control under flooded paddy conditions, ECHORC (Watergrass (Calif.)); type: in vivo; settings: preemergence, flooded paddy, rated three to four weeks after treatment; note: meaning of each grade not given here
Cyperus iria [2] = assay: Preemergence weed control under flooded paddy conditions, CYPIR (Rice Flatsedge); type: in vivo; settings: preemergence, flooded paddy, rated three to four weeks after treatment; note: meaning of each grade not given here
[3] = test system: Cyperus serotinus, Rottb.; assay: Preemergence weed control under flooded paddy conditions, CYPSE (Flatsedge); type: in vivo; settings: preemergence, rated three to four weeks after treatment; note: meaning of each grade not given here
[4] = test system: Monochoria vaginalis, Presl.; assay: Preemergence weed control under flooded paddy conditions, MOOVA (Monochoria); type: in vivo; settings: preemergence, flooded paddy, rated three to four weeks after treatment; note: meaning of each grade not given here
Sagittaria pygmaea, L. [5] = assay: Preemergence weed control under flooded paddy conditions, SAGPY (Arrowhead (Pygmaea)); type: in vivo; settings: preemergence, flooded paddy, rated three to four weeks after treatment; note: meaning of each grade not given here
[6] = test system: Echinochloa oryzoides (Ard.) Fritsch.; assay: Postemergence weed control under flooded paddy conditions, ECHORC (Watergrass (Calif.)); type: in vivo; settings: rated three to four weeks after treatment
Cyperus iria [7] = assay: Postemergence weed control under flooded paddy conditions, CYPIR (Rice Flatsedge); type: in vivo; settings: rated three to four weeks after treatment
[8] = test system: Cyperus serotinus, Rottb.; assay: Postemergence weed control under flooded paddy conditions, CYPSE (Flatsedge); type: in vivo; settings: rated three to four weeks after treatment
[9] = test system: Monochoria vaginalis, Presl.; assay: Postemergence weed control under flooded paddy conditions, MOOVA (Monochoria); type: in vivo; settings: rated three to four weeks after treatment
Sagittaria pygmaea, L. [10] = assay: Postemergence weed control under flooded paddy conditions, SAGPY (Arrowhead (Pygmaea)); type: in vivo; settings: rated three to four weeks after treatment
[11] = test system: Oryza sativa, (L.) Tebonnet; assay: Rice tolerance to post-transplant applications under flooded paddy conditions (Example 187), ORYSAT (Rice, Tebonnet); settings: rated three to four weeks after treatment; note: meaning of each grade not given here
[12] = test system: Oryza sativa, (L.) Tebonnet; assay: Rice tolerance to post-transplant applications under flooded paddy conditions (Example 188), ORYSAT (Rice, Tebonnet); settings: rated three to four weeks after treatment

COc1cc2c(cc1-c1nsc3ccc(-n4c(=O)cc(C(F)(F)F)n(C)c4=O)cc13)CCC2 [Example 380, 2,4(1H,3H)-Pyrimidinedione, 3-[3-(6-methoxy-5-indanyl)-1,2-benzisothiazol-5-yl]-1-methyl-6-(trifluoromethyl)-]
herbicidal effect rating, ECHORC ([1]; Rate 0.0320 kg/ha): 9.0
herbicidal effect rating, ECHORC ([1]; Rate 0.0620 kg/ha): 9.0
herbicidal effect rating, ECHORC ([1]; Rate 0.1250 kg/ha): 9.0
herbicidal effect rating, ECHORC ([1]; Rate 0.2500 kg/ha): 9.0
herbicidal effect rating, CYPIR (Cyperus iria [2]; Rate 0.0320 kg/ha): 9.0
herbicidal effect rating, CYPIR (Cyperus iria [2]; Rate 0.0620 kg/ha): 9.0
herbicidal effect rating, CYPIR (Cyperus iria [2]; Rate 0.1250 kg/ha): 9.0
herbicidal effect rating, CYPIR (Cyperus iria [2]; Rate 0.2500 kg/ha): 9.0
herbicidal effect rating, CYPSE ([3]; Rate 0.0320 kg/ha): 3.5
herbicidal effect rating, CYPSE ([3]; Rate 0.0620 kg/ha): 3.5
herbicidal effect rating, CYPSE ([3]; Rate 0.1250 kg/ha): 8.0
herbicidal effect rating, CYPSE ([3]; Rate 0.2500 kg/ha): 8.0
herbicidal effect rating, MOOVA ([4]; Rate 0.0320 kg/ha): 9.0
herbicidal effect rating, MOOVA ([4]; Rate 0.0620 kg/ha): 9.0
herbicidal effect rating, MOOVA ([4]; Rate 0.1250 kg/ha): 9.0
herbicidal effect rating, MOOVA ([4]; Rate 0.2500 kg/ha): 9.0
herbicidal effect rating, SAGPY (Sagittaria pygmaea, L. [5]; Rate 0.0320 kg/ha): 0.0
herbicidal effect rating, SAGPY (Sagittaria pygmaea, L. [5]; Rate 0.0620 kg/ha): 0.0
herbicidal effect rating, SAGPY (Sagittaria pygmaea, L. [5]; Rate 0.1250 kg/ha): 4.0
herbicidal effect rating, SAGPY (Sagittaria pygmaea, L. [5]; Rate 0.2500 kg/ha): 9.0
herbicidal effect rating, ECHORC ([6]; Rate 0.0320 kg/ha): 7.0
herbicidal effect rating, ECHORC ([6]; Rate 0.0620 kg/ha): 8.0
herbicidal effect rating, ECHORC ([6]; Rate 0.1250 kg/ha): 9.0
herbicidal effect rating, ECHORC ([6]; Rate 0.2500 kg/ha): 9.0
herbicidal effect rating, CYPIR (Cyperus iria [7]; Rate 0.0320 kg/ha): 9.0
herbicidal effect rating, CYPIR (Cyperus iria [7]; Rate 0.0620 kg/ha): 9.0
herbicidal effect rating, CYPIR (Cyperus iria [7]; Rate 0.1250 kg/ha): 9.0
herbicidal effect rating, CYPIR (Cyperus iria [7]; Rate 0.2500 kg/ha): 9.0
herbicidal effect rating, CYPSE ([8]; Rate 0.0320 kg/ha): 0.0
herbicidal effect rating, CYPSE ([8]; Rate 0.0620 kg/ha): 2.0
herbicidal effect rating, CYPSE ([8]; Rate 0.1250 kg/ha): 2.0
herbicidal effect rating, CYPSE ([8]; Rate 0.2500 kg/ha): 8.0
herbicidal effect rating, MOOVA ([9]; Rate 0.0320 kg/ha): 9.0
herbicidal effect rating, MOOVA ([9]; Rate 0.0620 kg/ha): 9.0
herbicidal effect rating, MOOVA ([9]; Rate 0.1250 kg/ha): 9.0
herbicidal effect rating, MOOVA ([9]; Rate 0.2500 kg/ha): 9.0
herbicidal effect rating, SAGPY (Sagittaria pygmaea, L. [10]; Rate 0.0320 kg/ha): 0.0
herbicidal effect rating, SAGPY (Sagittaria pygmaea, L. [10]; Rate 0.0620 kg/ha): 0.0
herbicidal effect rating, SAGPY (Sagittaria pygmaea, L. [10]; Rate 0.1250 kg/ha): 2.0
herbicidal effect rating, SAGPY (Sagittaria pygmaea, L. [10]; Rate 0.2500 kg/ha): 8.0
herbicidal effect rating ORYSAT ([11]; Rate 0.0320 kg/ha): 2.5
herbicidal effect rating ORYSAT ([11]; Rate 0.0620 kg/ha): 4.0
herbicidal effect rating ORYSAT ([11]; Rate 0.1250 kg/ha): 5.0
herbicidal effect rating ORYSAT ([11]; Rate 0.2500 kg/ha): 6.5
herbicidal effect rating, ORYSAT (rice tolerance) ([12]; Rate 0.0320 kg/ha): 3.0
herbicidal effect rating, ORYSAT (rice tolerance) ([12]; Rate 0.0620 kg/ha): 7.0
herbicidal effect rating, ORYSAT (rice tolerance) ([12]; Rate 0.1250 kg/ha): 7.0
herbicidal effect rating, ORYSAT (rice tolerance) ([12]; Rate 0.2500 kg/ha): 7.0
